Active and inactive are the calls of the source. No cut-off for these calls is given here.
Key:
[1] = tested on: Staphylococcus epidermidis; test: Antibacterial activity against Staphylococcus epidermidis ATCC 12228 assessed as inhibition of bacterial growth at pH 6.5 incubated for 24 hrs by NCCLS protocol based method; type: functional
Staphylococcus aureus [2] = test: Antibacterial activity against methicillin-resistant Staphylococcus aureus ATCC 43300 assessed as inhibition of bacterial growth at pH 7.4 incubated for 24 hrs by NCCLS protocol based method; type: functional
Salmonella typhimurium [3] = test: Antibacterial activity against Salmonella enterica subsp. enterica serovar Typhimurium C77-31 assessed as inhibition of bacterial growth at pH 7.4 incubated for 24 hrs by NCCLS protocol based method; type: functional
Salmonella typhimurium [4] = test: Antibacterial activity against Salmonella typhimurium ATCC 14028 assessed as inhibition of bacterial growth at pH 7.4 incubated for 24 hrs by NCCLS protocol based method; type: functional, Salmonella enterica subsp. enterica serovar Typhimurium; details: Salmonella enterica
Escherichia coli = test: Antibacterial activity against Escherichia coli ATCC 25922 assessed as inhibition of bacterial growth at pH 7.4 incubated for 24 hrs by NCCLS protocol based method; type: functional
Pseudomonas aeruginosa [5] = test: Antibacterial activity against Pseudomonas aeruginosa ATCC 27853 assessed as inhibition of bacterial growth at pH 7.4 incubated for 24 hrs by NCCLS protocol based method; type: functional
Staphylococcus aureus [6] = test: Antibacterial activity against Staphylococcus aureus ATCC 29213 assessed as inhibition of bacterial growth at pH 7.4 incubated for 24 hrs by NCCLS protocol based method; type: functional
[7] = tested on: Staphylococcus epidermidis; test: Antibacterial activity against Staphylococcus epidermidis ATCC 12228 assessed as inhibition of bacterial growth at pH 7.4 incubated for 24 hrs by NCCLS protocol based method; type: functional
Salmonella typhimurium [8] = test: Antibacterial activity against Salmonella typhimurium ATCC 14028 assessed as inhibition of bacterial growth at pH 6.5 incubated for 24 hrs by NCCLS protocol based method; type: functional, Salmonella enterica subsp. enterica serovar Typhimurium; details: Salmonella enterica
Pseudomonas aeruginosa [9] = test: Antibacterial activity against Pseudomonas aeruginosa ATCC 27853 assessed as inhibition of bacterial growth at pH 6.5 incubated for 24 hrs by NCCLS protocol based method; type: functional
Staphylococcus aureus [10] = test: Antibacterial activity against Staphylococcus aureus ATCC 29213 assessed as inhibition of bacterial growth at pH 6.5 incubated for 24 hrs by NCCLS protocol based method; type: functional
[11] = Hemolytic activity in human RBC assessed as hemoglobin release at pH 7.4 incubated for 1 hr; type: toxicity, cell-based; details: erythrocyte, pH 7.4, 1 h
[12] = Hemolytic activity against human RBC assessed as hemoglobin release at pH 6.5 incubated for 1 hrs; type: toxicity, cell-based; details: erythrocyte, pH 6.5, 1 h
[13] = Cytotoxicity against mouse RAW264.7 cells assessed as inhibition of cell growth at pH 7.4 measured after 24 hrs by MTT assay; type: toxicity, cell-based
[14] = Cytotoxicity against mouse RAW264.7 cells assessed as inhibition of cell growth at pH 6.5 measured after 24 hrs by MTT assay; type: toxicity, cell-based
Pseudomonas aeruginosa [15] = test: Antimicrobial activity against Pseudomonas aeruginosa ATCC 27853 assessed as reduction in bacterial growth at pH 6.5 in presence of NaCl; type: functional
Pseudomonas aeruginosa [16] = test: Antimicrobial activity against Pseudomonas aeruginosa ATCC 27853 assessed as reduction in bacterial growth at pH 6.5 in presence of KCl; type: functional, organism-based
Pseudomonas aeruginosa [17] = test: Antimicrobial activity against Pseudomonas aeruginosa ATCC 27853 assessed as reduction in bacterial growth at pH 6.5 in presence of NH4Cl; type: functional, organism-based
Pseudomonas aeruginosa [18] = test: Antimicrobial activity against Pseudomonas aeruginosa ATCC 27853 assessed as reduction in bacterial growth at pH 6.5 in presence of CaCl2; type: functional, organism-based
Pseudomonas aeruginosa [19] = test: Antimicrobial activity against Pseudomonas aeruginosa ATCC 27853 assessed as reduction in bacterial growth at pH 6.5 in presence of FeCl3; type: functional, organism-based
Lipopolysaccharide (LPS) [20] = test: Displacement of BODIPY-TR-cadaverin from Pseudomonas aeruginosa ATCC 27316 Lipopolysaccharide at 1 to 64 uM at pH 6.5 incubated for 1 hr by fluorescence based analysis relative to control; details: dose 1-64 µM
Lipopolysaccharide (LPS) [21] = test: Displacement of BODIPY-TR-cadaverin from Pseudomonas aeruginosa ATCC 27316 Lipopolysaccharide at 1 to 64 uM at pH 7.4 incubated for 1 hr by fluorescence based analysis relative to control; details: dose 1-64 µM
Cell membrane = test: Induction of cytoplasmic membrane depolarization in Pseudomonas aeruginosa ATCC 27853 assessed as increase in fluorescence intensity at acidic and alkaline pH by DiSC3-5 dye based fluorescence assay; type: subcellular; details: TDE = time-dependent effect
Pseudomonas aeruginosa [22] = test: Induction of morphological changes in Pseudomonas aeruginosa ATCC 27853 assessed as disruption in cell membrane at 2 uM at pH 6.5 incubated for 1 hr by SEM analysis; type: functional, organism-based
Pseudomonas aeruginosa [23] = test: Antimicrobial activity against Pseudomonas aeruginosa ATCC 27853 infected in ICR cutaneous abscess mouse model assessed as reduction in colony forming units at 5 mg/kg,ip administered twice a day measured after 72 hrs (reference value: 5.08 +/ 1.84 10^10 CFU/mL ); type: functional
Pseudomonas aeruginosa [24] = test: Antipseudomonal activity against Pseudomonas aeruginosa ATCC 27853 infected in ICR cutaneous abscess mouse model assessed as reduction in lesion area at 5 mg/kg,ip administered twice a day measured after 72 hrs (reference value: […]); type: functional
Mus musculus [25] = test: Antiinflammatory activity in ICR cutaneous abscess mouse model assessed as reduction in IL-1alpha expression in serum at 5 mg/kg,ip administered twice a day measured after 72 hrs by ELISA (reference value: 9.9 +/ 0.42 10^1pg/ml); type: functional
Mus musculus [26] = test: Antiinflammatory activity in ICR cutaneous abscess mouse model assessed as reduction in IL-1beta expression in serum at 5 mg/kg,ip administered twice a day measured after 72 hrs by ELISA (reference value: 9.9 +/ 0.47 10^1pg/ml); type: functional
Mus musculus [27] = test: Antiinflammatory activity in ICR cutaneous abscess mouse model assessed as reduction in IL-2 expression in serum at 5 mg/kg,ip administered twice a day measured after 72 hrs by ELISA (reference value: 1.53 +/ 0.06 10^3pg/ml); type: functional
Pseudomonas aeruginosa [28] = test: Antimicrobial activity against Pseudomonas aeruginosa ATCC 27853 infected in ICR cutaneous abscess mouse model assessed as reduction in necrotic tissue area in infection site at 5 mg/kg,ip administered twice a day measured after 3 days by hematoxylin and eosin staining based analysis; type: functional, organism-based; details: time 3.0 day
Pseudomonas aeruginosa [29] = test: Antimicrobial activity against Pseudomonas aeruginosa ATCC 27853 infected in ICR cutaneous abscess mouse model assessed as complete epidermis structure at 5 mg/kg,ip administered twice a day measured after 3 days by hematoxylin and eosin staining based analysis; type: functional, organism-based; details: time 3.0 day
[30] = Toxicity in ICR cutaneous abscess mouse model assessed as reduction in epidermal cell apoptosis at 10 mg/kg,sc measured after 24 hrs by TUNEL assay; type: organism-based; details: in vivo
Pseudomonas aeruginosa [31] = test: Induction of morphological changes in Pseudomonas aeruginosa ATCC 27853 assessed as change in intracellular contents at 2 uM at pH 7.4 incubated for 1 hr by TEM analysis; type: functional, organism-based
Pseudomonas aeruginosa [32] = test: Induction of morphological changes in Pseudomonas aeruginosa ATCC 27853 assessed as change in intracellular contents at 2 uM at pH 6.5 incubated for 1 hr by TEM analysis; type: functional, organism-based

## H-FLEHLIPHVIHGLVHAIHH-NH2
[1]
  MIC: > 64 µM
Staphylococcus aureus [2]
  MIC: > 64 µM
Salmonella typhimurium [3]
  MIC: > 64 µM
Salmonella typhimurium [4]
  MIC: > 64 µM
Escherichia coli
  MIC: > 64 µM
Pseudomonas aeruginosa [5]
  MIC: > 64 µM
Staphylococcus aureus [6]
  MIC: > 64 µM
[7]
  MIC: > 64 µM
Salmonella typhimurium [8]
  MIC: 16 µM
Pseudomonas aeruginosa [9]
  MIC: 2 µM
Staphylococcus aureus [10]
  MIC: > 64 µM
[11]
  MHC10: > 128 µM
[12]
  MHC10: > 128 µM
[13]
  IC50 at 24 h: > 128 µM
[14]
  IC50 at 24 h: > 128 µM
Pseudomonas aeruginosa [15]
  MIC: 2 µM
Pseudomonas aeruginosa [16]
  Activity: inactive
Pseudomonas aeruginosa [17]
  Activity: Active
Pseudomonas aeruginosa [18]
  Activity: Active
Pseudomonas aeruginosa [19]
  Activity: Active
Lipopolysaccharide (LPS) [20]
  Activity: 100%
Lipopolysaccharide (LPS) [21]
  Activity: 22.9%
Cell membrane
  Activity: Tde
Pseudomonas aeruginosa [22]
  Activity: Active
Pseudomonas aeruginosa [23]
  Activity: 2.16 10^9CFU/ml
Pseudomonas aeruginosa [24]
  Activity: 2.97 10^1/mm2
Mus musculus [25]
  Activity: 6.67 10^1pg/ml
Mus musculus [26]
  Activity: 6.93 10^1pg/ml
Mus musculus [27]
  Activity: 1.15 10^3pg/ml
Pseudomonas aeruginosa [28]
  Activity: Active
Pseudomonas aeruginosa [29]
  Activity: Active
[30]
  Activity: Non-Toxic
Pseudomonas aeruginosa [31]
  Activity: inactive
Pseudomonas aeruginosa [32]
  Activity: Active

From ChEMBL document CHEMBL5046301, “pH-Responsive Antimicrobial Peptide with Selective Killing Activity for Bacterial Abscess Therapy” (J Med Chem, 2022)
